In ChEMBL document CHEMBL5303765, “Data for DCP probe BAY-7081” (2023) one finds inhibition, delta Tm Staurosporine positive control and ΔTm data, which are given here for 2 compounds.

Experiment [1] concerns the target T1, Alpha-2B adrenergic receptor (Homo sapiens) (UniProt P18089).
T1 sequence (whole entry): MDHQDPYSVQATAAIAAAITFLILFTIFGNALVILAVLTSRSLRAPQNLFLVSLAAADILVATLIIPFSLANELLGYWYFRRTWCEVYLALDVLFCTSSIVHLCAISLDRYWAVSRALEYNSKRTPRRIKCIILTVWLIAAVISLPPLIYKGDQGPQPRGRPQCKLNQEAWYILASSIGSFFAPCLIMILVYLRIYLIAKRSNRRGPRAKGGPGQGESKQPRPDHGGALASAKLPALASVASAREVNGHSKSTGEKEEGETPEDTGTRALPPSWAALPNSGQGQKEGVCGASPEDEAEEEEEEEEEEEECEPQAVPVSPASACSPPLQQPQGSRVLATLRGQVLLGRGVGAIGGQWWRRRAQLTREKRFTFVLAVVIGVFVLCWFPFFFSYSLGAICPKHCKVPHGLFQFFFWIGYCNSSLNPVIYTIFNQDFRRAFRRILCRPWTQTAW
The conditions noted are these: Compound concentration 10.0 uM.

In experiment [2] the target is T2, Membrane-associated tyrosine- and threonine-specific cdc2-inhibitory kinase (Homo sapiens) (UniProt Q99640).
T2 sequence (whole entry): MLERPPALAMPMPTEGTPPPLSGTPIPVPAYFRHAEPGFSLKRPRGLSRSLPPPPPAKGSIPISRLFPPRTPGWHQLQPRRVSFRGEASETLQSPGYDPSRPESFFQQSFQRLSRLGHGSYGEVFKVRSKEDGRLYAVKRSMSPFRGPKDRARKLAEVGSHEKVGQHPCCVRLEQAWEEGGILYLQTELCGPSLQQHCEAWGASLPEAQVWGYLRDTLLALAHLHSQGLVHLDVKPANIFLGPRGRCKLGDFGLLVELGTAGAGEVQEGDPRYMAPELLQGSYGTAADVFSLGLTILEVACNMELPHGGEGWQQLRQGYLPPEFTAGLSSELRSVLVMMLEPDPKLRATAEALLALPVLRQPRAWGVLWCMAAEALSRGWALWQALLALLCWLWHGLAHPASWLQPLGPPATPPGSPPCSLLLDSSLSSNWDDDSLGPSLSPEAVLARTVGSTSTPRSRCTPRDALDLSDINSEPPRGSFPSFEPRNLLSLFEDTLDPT
As to the kind of experiment: PKMYT1 SGC Tm panel (DSF). The conditions noted are these: for ΔTm: Compound concentration 10.0 uM.

Experiment [3] addresses T3, 5-hydroxytryptamine receptor 1A (Homo sapiens) (UniProt P08908).
T3 sequence (whole entry): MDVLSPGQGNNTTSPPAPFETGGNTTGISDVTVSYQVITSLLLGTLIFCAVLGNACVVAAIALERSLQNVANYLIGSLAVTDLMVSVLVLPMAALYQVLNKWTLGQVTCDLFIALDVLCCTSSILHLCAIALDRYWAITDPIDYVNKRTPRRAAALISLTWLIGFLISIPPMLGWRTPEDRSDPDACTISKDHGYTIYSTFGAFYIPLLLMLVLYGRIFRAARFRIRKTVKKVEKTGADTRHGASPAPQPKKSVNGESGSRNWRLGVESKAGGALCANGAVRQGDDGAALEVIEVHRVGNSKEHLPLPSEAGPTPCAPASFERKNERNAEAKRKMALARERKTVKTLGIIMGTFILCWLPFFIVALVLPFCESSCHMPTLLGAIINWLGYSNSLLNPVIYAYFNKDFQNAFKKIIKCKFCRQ
The conditions noted are these: Compound concentration 10.0 uM.

In experiment [4] the target is T4, Mitogen-activated protein kinase 15 (Homo sapiens) (UniProt Q8TD08).
T4 sequence (whole entry): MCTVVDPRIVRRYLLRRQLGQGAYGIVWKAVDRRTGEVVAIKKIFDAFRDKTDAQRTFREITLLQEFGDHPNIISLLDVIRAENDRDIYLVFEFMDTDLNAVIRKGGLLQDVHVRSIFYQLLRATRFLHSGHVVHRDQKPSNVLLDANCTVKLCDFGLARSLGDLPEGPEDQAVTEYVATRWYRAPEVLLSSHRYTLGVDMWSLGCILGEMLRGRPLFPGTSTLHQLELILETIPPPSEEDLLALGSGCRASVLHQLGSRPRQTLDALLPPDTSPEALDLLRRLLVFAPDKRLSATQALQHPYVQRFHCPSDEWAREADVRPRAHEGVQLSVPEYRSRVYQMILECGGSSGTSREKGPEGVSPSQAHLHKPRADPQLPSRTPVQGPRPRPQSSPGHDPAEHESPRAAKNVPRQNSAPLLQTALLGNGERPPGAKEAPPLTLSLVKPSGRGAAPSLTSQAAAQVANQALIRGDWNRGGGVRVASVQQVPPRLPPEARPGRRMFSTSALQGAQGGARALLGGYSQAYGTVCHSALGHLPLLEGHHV
As to the kind of experiment: MAPK15 SGC Tm panel (DSF). As to conditions: for ΔTm: Compound concentration 10.0 uM.

The target of experiment [5] is T5, D(4) dopamine receptor (Homo sapiens) (UniProt P21917).
T5 sequence (whole entry): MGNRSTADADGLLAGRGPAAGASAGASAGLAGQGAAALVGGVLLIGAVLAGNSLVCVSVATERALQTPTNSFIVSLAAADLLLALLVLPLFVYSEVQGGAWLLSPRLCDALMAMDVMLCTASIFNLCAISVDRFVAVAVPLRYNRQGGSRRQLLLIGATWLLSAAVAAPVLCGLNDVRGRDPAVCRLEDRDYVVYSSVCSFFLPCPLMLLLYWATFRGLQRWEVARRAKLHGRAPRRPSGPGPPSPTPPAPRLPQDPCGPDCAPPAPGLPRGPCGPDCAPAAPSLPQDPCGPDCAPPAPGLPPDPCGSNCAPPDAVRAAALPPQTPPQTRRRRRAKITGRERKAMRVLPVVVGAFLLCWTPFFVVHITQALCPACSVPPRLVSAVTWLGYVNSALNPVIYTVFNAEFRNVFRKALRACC
The conditions noted are these: Compound concentration 10.0 uM.

The target of experiment [6] is Serine/threonine-protein kinase 10 (Homo sapiens) (UniProt O94804). The experiment in a line: STK10 SGC Tm panel (DSF). As to conditions: for ΔTm: Compound concentration 10.0 uM.
Experiment [7] deals with SRSF protein kinase 3 (Homo sapiens) (UniProt Q9UPE1). As to the kind of experiment: MSSK1 SGC Tm panel (DSF). As to conditions: for ΔTm: Compound concentration 10.0 uM.
The target in experiment [8] is RAC-gamma serine/threonine-protein kinase (Homo sapiens) (UniProt Q9Y243). As to the kind of experiment: AKT3 SGC Tm panel (DSF). The conditions noted are these: for ΔTm: Compound concentration 10.0 uM.

One may read the inhibition as how much of the control response was suppressed.

Sequence of RAC-gamma serine/threonine-protein kinase (Homo sapiens) (Q9Y243 whole entry): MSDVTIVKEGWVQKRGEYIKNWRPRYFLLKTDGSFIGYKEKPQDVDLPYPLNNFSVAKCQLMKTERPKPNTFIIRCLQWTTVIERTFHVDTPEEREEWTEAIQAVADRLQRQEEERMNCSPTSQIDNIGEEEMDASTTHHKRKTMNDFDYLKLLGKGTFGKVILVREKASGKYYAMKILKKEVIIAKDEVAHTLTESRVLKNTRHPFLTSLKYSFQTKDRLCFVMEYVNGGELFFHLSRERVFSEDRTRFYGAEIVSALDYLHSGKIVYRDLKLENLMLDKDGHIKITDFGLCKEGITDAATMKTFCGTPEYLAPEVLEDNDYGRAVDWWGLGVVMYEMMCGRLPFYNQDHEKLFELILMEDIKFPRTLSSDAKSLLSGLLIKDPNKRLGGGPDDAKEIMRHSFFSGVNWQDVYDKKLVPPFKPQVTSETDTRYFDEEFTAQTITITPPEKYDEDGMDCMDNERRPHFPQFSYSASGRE
Sequence of Serine/threonine-protein kinase 10 (Homo sapiens) (O94804 whole entry, looked up): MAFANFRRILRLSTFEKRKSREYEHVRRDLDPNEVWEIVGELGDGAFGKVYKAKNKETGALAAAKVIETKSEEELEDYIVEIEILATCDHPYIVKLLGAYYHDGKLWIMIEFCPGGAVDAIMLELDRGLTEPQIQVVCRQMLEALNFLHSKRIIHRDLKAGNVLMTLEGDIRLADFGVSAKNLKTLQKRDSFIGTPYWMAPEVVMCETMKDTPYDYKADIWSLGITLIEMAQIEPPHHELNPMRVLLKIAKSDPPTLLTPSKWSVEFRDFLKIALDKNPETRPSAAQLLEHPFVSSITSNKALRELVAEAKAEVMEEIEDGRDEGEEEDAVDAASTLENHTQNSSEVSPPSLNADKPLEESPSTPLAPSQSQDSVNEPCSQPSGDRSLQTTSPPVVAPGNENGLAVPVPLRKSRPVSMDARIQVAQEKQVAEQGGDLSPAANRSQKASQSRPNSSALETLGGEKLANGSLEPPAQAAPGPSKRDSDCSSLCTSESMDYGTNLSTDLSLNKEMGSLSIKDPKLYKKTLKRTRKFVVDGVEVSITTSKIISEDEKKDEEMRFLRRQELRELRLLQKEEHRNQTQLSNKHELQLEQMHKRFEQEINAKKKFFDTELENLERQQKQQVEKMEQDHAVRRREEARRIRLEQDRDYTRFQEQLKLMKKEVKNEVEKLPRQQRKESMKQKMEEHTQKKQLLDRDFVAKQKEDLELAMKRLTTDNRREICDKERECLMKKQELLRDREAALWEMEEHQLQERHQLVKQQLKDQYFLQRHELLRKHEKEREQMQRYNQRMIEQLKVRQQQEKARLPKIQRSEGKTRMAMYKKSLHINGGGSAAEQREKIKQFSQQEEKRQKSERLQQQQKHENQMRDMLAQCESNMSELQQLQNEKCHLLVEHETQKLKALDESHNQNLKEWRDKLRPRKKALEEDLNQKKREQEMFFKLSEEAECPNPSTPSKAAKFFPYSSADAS
Sequence of SRSF protein kinase 3 (Homo sapiens) (Q9UPE1 whole entry): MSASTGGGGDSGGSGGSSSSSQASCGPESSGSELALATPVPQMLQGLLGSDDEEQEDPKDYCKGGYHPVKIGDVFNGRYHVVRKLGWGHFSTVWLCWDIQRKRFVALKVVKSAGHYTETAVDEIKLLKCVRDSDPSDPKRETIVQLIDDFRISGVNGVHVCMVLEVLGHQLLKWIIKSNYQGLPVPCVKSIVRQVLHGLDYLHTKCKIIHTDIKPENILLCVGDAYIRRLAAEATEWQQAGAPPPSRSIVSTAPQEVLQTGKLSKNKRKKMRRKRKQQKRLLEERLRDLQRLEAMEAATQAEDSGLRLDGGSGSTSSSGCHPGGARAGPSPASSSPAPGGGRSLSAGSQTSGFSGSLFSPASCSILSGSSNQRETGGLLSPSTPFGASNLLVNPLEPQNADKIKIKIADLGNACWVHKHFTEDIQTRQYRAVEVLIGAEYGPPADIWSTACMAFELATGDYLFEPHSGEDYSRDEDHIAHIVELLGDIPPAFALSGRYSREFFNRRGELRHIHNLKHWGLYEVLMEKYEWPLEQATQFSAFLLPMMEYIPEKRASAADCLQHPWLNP

As for `CCC[C@H]1CNCc2c1[nH]c(=O)c(C#N)c2N1CCC2(CC1)CC2`, the figures for the inhibition in experiment [1], in experiment [3] and in experiment [5] were 4.16%, 5.13% and 15.9%, respectively. Moreover, the delta Tm Staurosporine positive control in experiment [2] is 0.0474; in experiment [4], 16.4; in experiment [6], 22.2; in experiment [7], 4.52; in experiment [8] it was 7.15. Also, the ΔTm in experiment [2] was -0.47; in experiment [4] it was -0.258; in experiment [6], -2.2; in experiment [7], -0.144; in experiment [8] it was -0.443.

Consider `CCC[C@@H]1CNCc2c1[nH]c(=O)c(C#N)c2N1CCC2(CC1)CC2`, for which the results for the inhibition in experiment [1], in experiment [3] and in experiment [5] were 16.9%, 8.63% and 18.8%, respectively. The delta Tm Staurosporine positive control in experiment [2] worked out at 0.0474; in experiment [4] it was 16.4; in experiment [6], 22.2; in experiment [7], 4.52; in experiment [8], 7.15. Moreover, the ΔTm was -0.384 in experiment [2]; 0.0332 in experiment [4]; -2.3 in experiment [6]; -0.164 in experiment [7]; -0.39 in experiment [8].
